Results as given in patent US10640532B2, “Crystal of reduced glutathione” (University Public Corporation Osaka, priority 2015, dated 2020).
Where two headings read alike, the source gives them in different places.

Settings: storage 40° C., 75% relative humidity
Procedure: The amorphous solid of a reduced glutathione-sodium salt obtained in (1) of Example 1, and the final crystal of a reduced glutathione-sodium salt obtained in Example 1 were compared for hygroscopicity under the following conditions.
Storage conditions: 40° C., 75% relative humidity (adjusted with saturated brine)
Measurement conditions: About 0.3 g of a sample was weighed with a precision balance, and charged into a plastic container. After being stored under the foregoing storage conditions, the sample was weighed, and the percentage of weight change was calculated.
The measured sample weight at each time point is relative to the 100% initial weight at the start of testing. In table 5, the symbol “-” means no measurement.

For `N[C@@H](CCC(=O)N[C@@H](CS)C(=O)NCC(=O)O)C(=O)[O-].[Na+]` [Amorphous, reduced glutathione-sodium salt], the “weight (%) relative to 100% initial weight” value (elapsed time 0 h) was 100%, the “weight (%) relative to 100% initial weight” value (elapsed time 0.25 h) was 100.7% and the “weight (%) relative to 100% initial weight” value (elapsed time 2 h) was 104.1%. For the same compound, the “weight (%) relative to 100% initial weight” value (elapsed time 4 h) was 106.2%, the “weight (%) relative to 100% initial weight” value (elapsed time 10 h) was 110.2% and the “weight (%) relative to 100% initial weight” value (elapsed time 20 h) was 117.3%. For the same compound, the “weight (%) relative to 100% initial weight” value (elapsed time 48 h) was 125.8%.
With `N[C@@H](CCC(=O)N[C@@H](CS)C(=O)NCC(=O)O)C(=O)[O-].[Na+]` [Crystal, reduced glutathione-sodium salt] the “weight (%) relative to 100% initial weight” value (elapsed time 0 h) was 100%, the “weight (%) relative to 100% initial weight” value (elapsed time 2 h) was 100.7% and the “weight (%) relative to 100% initial weight” value (elapsed time 10 h) was 101.9%. For the same compound, the “weight (%) relative to 100% initial weight” value (elapsed time 20 h) was 102%, the “weight (%) relative to 100% initial weight” value (elapsed time 48 h) was 102.9% and the “hygroscopicity / preservation stability compared with the amorphous solid” value (up to 48 h) was “less likely to absorb moisture than the amorphous solid”.
